Like-named read-outs stand apart in the source and are kept apart here.

One assay has as its target T1, Brain AChE (Rattus norvegicus, UniProt P37136).
T1 construct: corpora striata dissected free, weighed and homogenized in 19 volumes; from tissue; host or cells: rat corpora striata homogenate (male Wistar rats)
Nature of the assay: In vitro inhibition of acetylcholinesterase activity in rat striatum (modified Ellman method). The assay is classed as biochemical. From the text: Cholinesterases are found throughout the body, both in the brain and in serum. However, only brain acetylcholinesterase (AChE) distribution is correlated with central cholinergic innervation. […] We have determined in vitro inhibition of acetylcholinesterase activity in rat striatum according to the method described below.
In Vitro Inhibition of Acetylcholinesterase Activity in Rat Striatum
The method described below was used in this invention for assaying anticholinesterase activity. This is a modification of the method of Ellman et al., Biochem. Pharmacol. 7, 88 (1961).
• 1. 0.05 M Phosphate buffer, pH 7.2 • (a) 6.85 g NaH2PO4·H2O/100 ml distilled H2O • (b) 13.40 g Na2HPO4·7H2O/100 ml distilled H2O • (c) add (a) to (b) until pH reaches 7.2 • (d) Dilute 1:10 • 2. Substrate in buffer • (a) 198 mg acetylthiocholine chloride (10 mM) • (b) q.s. to 100 ml with 0.05 M NaPO4, pH 7.2 (reagent 1) • 3. DTNB in buffer • (a) 19.8 mg 5,5-dithiobisnitrobenzoic acid (DTNB) (0.5 mM) • (b) q.s. to 100 ml with 0.05M NaPO4, pH 7.2 (reagent 1) • 4. A 2mM stock solution of the test drug is made up in a suitable solvent and q.s. to volume with 0.5 mM DTNB (reagent 3). Drugs are serially diluted (1:10) such that the final concentration (in cuvette) is 10^-4M and screened for activity. If active, IC50 values are determined from the inhibitory activity of subsequent concentrations.
Male Wistar rats are decapitated, brains rapidly removed, corpora striata dissected free, weighed and homogenized in 19 volumes (approximately 7 mg protein/ml) of 0.05 M phosphate buffer, pH 7.2 using a Potter-Elvehjem homogenizer. A 25 microliter aliquot of the homogenate is added to 1 ml of vehicle or various concentrations of the test drug and preincubated for 10 minutes at 37°C.
Enzyme activity is measured with the Beckman DU-50 spectrophotometer. This method can be used for IC50 determinations and for measuring kinetic constants.
Kinetics Soft-Pac Module #598273 (10) Program #6 Kindata: Source - Vis Wavelength - 412 nm Sipper - none Cuvettes - 2 ml cuvettes using auto 6-sampler Blank - 1 for each substrate concentration Interval time - 15 seconds (15 or 30 seconds for kinetics) Total time - 5 minutes (5 or 10 minutes for kinetics) Plot - yes Span - autoscale Slope - increasing Results - yes (gives slope) Factor - 1 […]
Blank values are determined for each run to control non enzymatic hydrolysis of substrate and these values are automatically substracted by the kindata program available on kinetics soft-pac module. This program also calculates the rate of absorbance change for each cuvette. […]
IC50 values are calculated from log-probit analysis.
(In Ellman's method for cholinesterases, released thiocholine reacts with DTNB.)

Assay [1] relates to Scopolamine Induced Memory Deficit. As to the kind of experiment: Dark Avoidance Assay (reversal of scopolamine induced memory deficit). Type of assay: in vivo. As to conditions: mice, s.c., retest after 24 hours. The procedure:
In this assay mice are tested for their ability to remember an unpleasant stimulus for a period of 24 hours. A mouse is placed in a chamber that contains a dark compartment; a strong incandescent light drives it to the dark compartment, where an electric shock is administered through metal plates on the floor. The animal is removed from the testing apparatus and tested again, 24 hours later, for the ability to remember the electric shock.
If scopolamine, an anticholinergic that is known to cause memory impairment, is administered before an animal's initial exposure to the test chamber, the animal re-enters the dark compartment shortly after being placed in the test chamber 24 hours later. This effect of scopolamine is blocked by an active test compound, resulting in a greater interval before re-entry into the dark compartment.
The results for an active compound are expressed as the percent of a group of animals in which the effect of scopolamine is blocked, as manifested by an increased interval between being placed in the test chamber and re-entering the dark compartment.

Where [2] appears, read: rat striatum homogenate, preincubated 10 minutes at 37°C, 5 mM acetylthiocholine, pH 7.2, read-out: Inhibitory Concentration (IC50) Brain AChE.

T1 sequence (P37136 32-614): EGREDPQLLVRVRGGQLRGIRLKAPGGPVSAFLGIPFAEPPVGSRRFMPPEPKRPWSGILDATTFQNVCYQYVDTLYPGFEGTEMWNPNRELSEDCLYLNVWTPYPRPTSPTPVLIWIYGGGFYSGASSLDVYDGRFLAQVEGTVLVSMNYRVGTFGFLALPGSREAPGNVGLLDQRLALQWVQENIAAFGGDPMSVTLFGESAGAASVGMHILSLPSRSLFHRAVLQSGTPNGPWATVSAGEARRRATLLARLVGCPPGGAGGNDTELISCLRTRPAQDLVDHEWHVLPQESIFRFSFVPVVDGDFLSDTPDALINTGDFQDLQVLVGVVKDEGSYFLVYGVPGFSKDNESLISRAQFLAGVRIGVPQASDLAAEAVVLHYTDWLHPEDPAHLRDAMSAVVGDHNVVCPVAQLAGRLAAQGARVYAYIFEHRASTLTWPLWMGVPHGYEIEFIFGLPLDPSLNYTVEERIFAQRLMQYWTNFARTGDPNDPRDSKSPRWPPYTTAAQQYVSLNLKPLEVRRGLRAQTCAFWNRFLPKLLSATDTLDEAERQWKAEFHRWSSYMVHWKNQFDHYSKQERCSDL

For `CCCCOC(=O)C(=O)c1ccc2c(c1)C1(C)CCN(C)C1N2C` (stereo not drawn) [1,2,3,3a,8,8a-Hexahydro-α-oxo-1,3a,8-trimethyl-5-pyrrolo[2,3-b]indole acetic acid, n-butyl ester], the IC50 on Brain AChE (setting [2]) was 5.7 µM. Same read-out and setting: under `CCCCCOC(=O)C(=O)c1ccc2c(c1)C1(C)CCN(C)C1N2C` (stereo not drawn) [1,2,3,3a,8,8a-Hexahydro-α-oxo-1,3a,8-trimethyl-5-pyrrolo[2,3-b]indole acetic acid, n-pentyl ester] stands 8 µM.

`CN1CCC2(C)c3cc(C(=O)C(=O)OCCc4ccccc4)ccc3N(C)C12` (stereo not drawn) [1,2,3,3a,8,8a-Hexahydro-α-oxo-1,3a,8-trimethyl-5-pyrrolo[2,3-b]indole acetic acid, phenylethyl ester] yielded an IC50 against Brain AChE of 9.1 µM. Also, the “% of Animals with Scopolamine Induced Memory Deficit Reversal” value (“% of Animals” below) turned out to be 29% in assay [1] (dose 0.1 mg/kg of body weight), 36% in assay [1] (dose 0.3 mg/kg of body weight) and 20% in assay [1] (dose 1.0 mg/kg of body weight). For `CN1CCC2(C)c3cc(C(=O)C(=O)OCc4ccccc4)ccc3N(C)C12` (stereo not drawn) [1,2,3,3a,8,8a-Hexahydro-α-oxo-1,3a,8-trimethyl-5-pyrrolo[2,3-b]indole acetic acid, phenylmethyl ester], at Brain AChE (setting [2]), the IC50 amounted to 4.4 µM. Consider `CC[C@@H]1C(=O)OC[C@@H]1Cc1cncn1C` [Pilocarpine, reference compound], for which the “% of Animals” value in assay [1] (dose 5.0 mg/kg of body weight) is listed as 13%.

Consider `Nc1c2c(nc3ccccc13)CCCC2` [Tacrine, reference compound], for which the “% of Animals” value in assay [1] (dose 0.63 mg/kg of body weight) is 13%.

The values above are taken from patent publication EP0457318B1, “Alpha-Oxopyrrolo[2,3-b]indole acetic acids, esters, amides and related analogs, a process for their preparation and their use as medicaments” (HOECHST-ROUSSEL PHARMACEUTICALS INCORPORATED, priority 1990, dated 1991).
